Earlier results on two molecules are cited in patent US20100317666A1, “Composition Comprising An NK-1 Receptor Antagonist And An SSRI For The Treatment Of Tinnitus And Hearing Loss” (Glaxo Group Limited, priority 2006, published 2010).

For data set [1] the following is noted: 8-12 weeks treatment; high dose (up to 50 mg/day).
For data set [2] the following is noted: iv infusion; transient effect.

SMILES strings stand for the structures.

Turning to `Fc1ccc([C@@H]2CCNC[C@H]2COc2ccc3c(c2)OCO3)cc1` (relative stereo) [paroxetine, trans-(−)-3-[(1,3-benzodioxol-5-yloxy)methyl]-4-(4-fluorophenyl)piperidine], the effects on tinnitus result in data set [1] is given as “Modest effects”.
For `CCN(CC)CC(=O)Nc1c(C)cccc1C` [lidocaine], in data set [2], the “subject responding with tinnitus partial or complete inhibition” value is listed as “up to 60%”.
